Columns and labels:
[1] = biological target: T1, P-glycoprotein 1 (P-gp, hMDR1) (Homo sapiens, UniProt P08183); test: vanadate-sensitive ATPase activation in P-gp membrane vesicles (PREDEASY kit); supported by Rh123 competition in MDR cells
T1 construct: gene ABCB1

[2] = biological target: T1, P-glycoprotein 1 (P-gp, hMDR1); test: biochemical

T1 sequence (P08183 whole entry): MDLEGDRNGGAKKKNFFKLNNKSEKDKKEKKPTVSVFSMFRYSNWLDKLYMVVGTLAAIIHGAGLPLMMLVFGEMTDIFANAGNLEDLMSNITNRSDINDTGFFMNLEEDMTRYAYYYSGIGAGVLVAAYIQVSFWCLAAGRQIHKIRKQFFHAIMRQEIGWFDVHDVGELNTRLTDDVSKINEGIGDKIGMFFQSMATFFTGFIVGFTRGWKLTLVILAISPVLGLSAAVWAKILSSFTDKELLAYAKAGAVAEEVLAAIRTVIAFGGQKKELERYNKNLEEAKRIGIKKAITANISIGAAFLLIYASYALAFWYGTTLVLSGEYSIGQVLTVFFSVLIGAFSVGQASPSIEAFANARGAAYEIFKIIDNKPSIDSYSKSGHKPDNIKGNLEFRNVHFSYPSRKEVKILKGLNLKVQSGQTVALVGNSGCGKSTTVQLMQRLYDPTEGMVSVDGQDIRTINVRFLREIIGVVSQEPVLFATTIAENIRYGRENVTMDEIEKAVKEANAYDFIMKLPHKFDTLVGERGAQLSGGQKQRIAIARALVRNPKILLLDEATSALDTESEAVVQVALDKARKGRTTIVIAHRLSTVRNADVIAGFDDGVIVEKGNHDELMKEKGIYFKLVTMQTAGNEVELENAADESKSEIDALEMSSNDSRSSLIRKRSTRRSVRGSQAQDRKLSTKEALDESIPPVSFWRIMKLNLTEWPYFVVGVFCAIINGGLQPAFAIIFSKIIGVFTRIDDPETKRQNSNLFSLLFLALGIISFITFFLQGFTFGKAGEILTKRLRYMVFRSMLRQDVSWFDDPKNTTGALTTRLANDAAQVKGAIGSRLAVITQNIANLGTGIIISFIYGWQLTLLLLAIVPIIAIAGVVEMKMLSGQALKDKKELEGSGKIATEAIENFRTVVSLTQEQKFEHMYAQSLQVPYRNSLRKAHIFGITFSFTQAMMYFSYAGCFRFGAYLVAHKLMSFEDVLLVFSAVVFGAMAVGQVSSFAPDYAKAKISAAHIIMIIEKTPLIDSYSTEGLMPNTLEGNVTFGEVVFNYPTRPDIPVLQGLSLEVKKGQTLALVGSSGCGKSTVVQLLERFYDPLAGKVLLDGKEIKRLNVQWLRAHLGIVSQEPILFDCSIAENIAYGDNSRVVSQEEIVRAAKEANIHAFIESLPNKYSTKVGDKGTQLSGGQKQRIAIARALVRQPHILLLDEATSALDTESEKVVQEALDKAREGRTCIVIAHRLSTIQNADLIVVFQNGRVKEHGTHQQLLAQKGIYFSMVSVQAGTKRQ

Row | Structure (SMILES) | Kd [1] | Kd [2]
1 | CC(C)Cn1cnc2c(N)nc3ccccc3c21 [IMQ, Imiquimod] | 7.66 µM | 
2 | CCOCc1nc2c(N)nc3ccccc3c2n1CC(C)(C)O [RSQ, Resiquimod] |  | 24.4 µM

From PMC8705394, “Acquired Drug Resistance Enhances Imidazoquinoline Efflux by P-Glycoprotein” (Pharmaceuticals, 2021)
